System: patients with advanced renal cell carcinoma
Conditions: in vivo
Protocol: Treatment modifications, including interruptions and dose reductions, were allowed to manage adverse events. […] Patients were allowed to continue study treatment beyond radiographic progression at the discretion of the investigator. On-study crossover between treatment groups was not permitted. Safety evaluations, including physical examination, vital signs, and laboratory assessments, were conducted every 2 weeks for the first 8 weeks and then every 4 weeks thereafter. ECG assessments were performed every 4 weeks for the first 8 weeks and then every 12 weeks. A safety follow-up visit was scheduled 30 days after treatment discontinuation. Adverse events were assessed by investigators and graded according to CTCAE version 4.0.
Safety analyses were limited to patients who received any amount of study treatment.

COc1cc2nccc(Oc3ccc(NC(=O)C4(C(=O)Nc5ccc(F)cc5)CC4)cc3)c2cc1OC [cabozantinib]
Abdominal pain, Grade 1-2 (human): 48 (15) n (%)
Abdominal pain, Grade 3 (human): 12 (4) n (%)
Abdominal pain, Grade 4 (human): 0 n (%)
Alanine aminotransferase increased, Grade 1-2 (human): 47 (14) n (%)
Alanine aminotransferase increased, Grade 3 (human): 7 (2) n (%)
Alanine aminotransferase increased, Grade 4 (human): 1 (<1) n (%)
Anemia, Grade 1-2 (human): 42 (13) n (%)
Anemia, Grade 3 (human): 19 (6) n (%)
Anemia, Grade 4 (human): 0 n (%)
Any AE, Grade 1-2 (human): 70 (21) n (%)
Any AE, Grade 3 (human): 210 (63) n (%)
Any AE, Grade 4 (human): 25 (8) n (%)
Arthralgia, Grade 1-2 (human): 43 (13) n (%)
Arthralgia, Grade 3 (human): 1 (<1) n (%)
Arthralgia, Grade 4 (human): 0 n (%)
Aspartate aminotransferase increased, Grade 1-2 (human): 55 (17) n (%)
Aspartate aminotransferase increased, Grade 3 (human): 5 (2) n (%)
Aspartate aminotransferase increased, Grade 4 (human): 0 n (%)
Asthenia, Grade 1-2 (human): 49 (15) n (%)
Asthenia, Grade 3 (human): 15 (5) n (%)
Asthenia, Grade 4 (human): 0 n (%)
Back pain, Grade 1-2 (human): 54 (16) n (%)
Back pain, Grade 3 (human): 8 (2) n (%)
Back pain, Grade 4 (human): 0 n (%)
Blood creatinine increased, Grade 1-2 (human): 17 (5) n (%)
Blood creatinine increased, Grade 3 (human): 1 (<1) n (%)
Blood creatinine increased, Grade 4 (human): 0 n (%)
Constipation, Grade 1-2 (human): 89 (27) n (%)
Constipation, Grade 3 (human): 1 (<1) n (%)
Constipation, Grade 4 (human): 0 n (%)
Cough, Grade 1-2 (human): 67 (20) n (%)
Cough, Grade 3 (human): 1 (<1) n (%)
Cough, Grade 4 (human): 0 n (%)
Decreased appetite, Grade 1-2 (human): 146 (44) n (%)
Decreased appetite, Grade 3 (human): 10 (3) n (%)
Decreased appetite, Grade 4 (human): 0 n (%)
Diarrhea, Grade 1-2 (human): 206 (62) n (%)
Diarrhea, Grade 3 (human): 43 (13) n (%)
Diarrhea, Grade 4 (human): 0 n (%)
Diarrhea, all grades (human): 249 (75%) n (%)
Diarrhea, grade 3 or 4 (human): 43 [13%] n [%]
Discontinuation due to a primary reason of AE (excluding disease progression) (human): 10%
Dizziness, Grade 1-2 (human): 41 (12) n (%)
Dizziness, Grade 3 (human): 1 (<1) n (%)
Dizziness, Grade 4 (human): 0 n (%)
Dry skin, Grade 1-2 (human): 37 (11) n (%)
Dry skin, Grade 3 (human): 0 n (%)
Dry skin, Grade 4 (human): 0 n (%)
Dysgeusia, Grade 1-2 (human): 80 (24) n (%)
Dysgeusia, Grade 3 (human): 0 n (%)
Dysgeusia, Grade 4 (human): 0 n (%)
Dyspepsia, Grade 1-2 (human): 40 (12) n (%)
Dyspepsia, Grade 3 (human): 1 (<1) n (%)
Dyspepsia, Grade 4 (human): 0 n (%)
Dysphonia, Grade 1-2 (human): 68 (21) n (%)
Dysphonia, Grade 3 (human): 2 (<1) n (%)
Dysphonia, Grade 4 (human): 0 n (%)
Dyspnoea, Grade 1-2 (human): 56 (17) n (%)
Dyspnoea, Grade 3 (human): 10 (3) n (%)
Dyspnoea, Grade 4 (human): 0 n (%)
Edema peripheral, Grade 1-2 (human): 39 (12) n (%)
Edema peripheral, Grade 3 (human): 0 n (%)
Edema peripheral, Grade 4 (human): 0 n (%)
Epistaxis, Grade 1-2 (human): 14 (4) n (%)
Epistaxis, Grade 3 (human): 0 n (%)
Epistaxis, Grade 4 (human): 0 n (%)
Fatigue, Grade 1-2 (human): 159 (48) n (%)
Fatigue, Grade 3 (human): 36 (11) n (%)
Fatigue, Grade 4 (human): 0 n (%)
Fatigue, all grades (human): 195 (59%) n (%)
Fatigue, grade 3 or 4 (human): 36 [11%] n [%]
Flatulence, Grade 1-2 (human): 33 (10) n (%)
Flatulence, Grade 3 (human): 0 n (%)
Flatulence, Grade 4 (human): 0 n (%)
Grade 3 and 4 adverse events: Hyperglycemia, % (human): 1 (1) %
Grade 3 or 4 Adverse Events: Hypercalcemia (event of interest), % (human): (1) %
Grade 3 or 4 Adverse Events: Hyperglycemia, % (human): (1) %
Grade 3 or 4 Adverse Events: PPES, % (human): (8) %
Grade 3 or 4 adverse events (human): 235 (71%) n (%)
Grade 5 adverse events regardless of causality (human): 7.9%
Headache, Grade 1-2 (human): 43 (13) n (%)
Headache, Grade 3 (human): 1 (<1) n (%)
Headache, Grade 4 (human): 0 n (%)
Hyperglycemia, Grade 1-2 (human): 15 (5) n (%)
Hyperglycemia, Grade 3 (human): 2 (<1) n (%)
Hyperglycemia, Grade 4 (human): 1 (<1) n (%)
Hypertension, Grade 1-2 (human): 73 (22) n (%)
Hypertension, Grade 3 (human): 49 (15) n (%)
Hypertension, Grade 4 (human): 0 n (%)
Hypertension, grade 3 or 4 (human): 49 [15%] n [%]
Hypertriglyceridemia, Grade 1-2 (human): 17 (5) n (%)
Hypertriglyceridemia, Grade 3 (human): 4 (1) n (%)
Hypertriglyceridemia, Grade 4 (human): 0 n (%)
Hypomagnesaemia, Grade 1-2 (human): 38 (12) n (%)
Hypomagnesaemia, Grade 3 (human): 6 (2) n (%)
Hypomagnesaemia, Grade 4 (human): 10 (3) n (%)
Hypothyroidism, Grade 1-2 (human): 76 (23) n (%)
Hypothyroidism, Grade 3 (human): 0 n (%)
Hypothyroidism, Grade 4 (human): 0 n (%)
Insomnia, Grade 1-2 (human): 32 (10) n (%)
Insomnia, Grade 3 (human): 0 n (%)
Insomnia, Grade 4 (human): 0 n (%)
Mucosal inflammation, Grade 1-2 (human): 60 (18) n (%)
Mucosal inflammation, Grade 3 (human): 5 (2) n (%)
Mucosal inflammation, Grade 4 (human): 0 n (%)
Muscle spasms, Grade 1-2 (human): 45 (14) n (%)
Muscle spasms, Grade 3 (human): 0 n (%)
Muscle spasms, Grade 4 (human): 0 n (%)
Nausea, Grade 1-2 (human): 158 (48) n (%)
Nausea, Grade 3 (human): 15 (5) n (%)
Nausea, Grade 4 (human): 0 n (%)
Nausea, all grades (human): 173 (52%) n (%)
Overall incidence of adverse events regardless of causality (human): 100%
Pain in extremity, Grade 1-2 (human): 46 (14) n (%)
Pain in extremity, Grade 3 (human): 5 (2) n (%)
Pain in extremity, Grade 4 (human): 0 n (%)
Palmar-plantar erythrodysaesthesia syndrome, Grade 1-2 (human): 115 (35) n (%)
Palmar-plantar erythrodysaesthesia syndrome, Grade 3 (human): 27 (8) n (%)
Palmar-plantar erythrodysaesthesia syndrome, Grade 4 (human): 0 n (%)
Patients with dose reductions (human): 62%
Proteinuria, Grade 1-2 (human): 37 (11) n (%)
Proteinuria, Grade 3 (human): 8 (2) n (%)
Proteinuria, Grade 4 (human): 0 n (%)
Pruritus, Grade 1-2 (human): 27 (8) n (%)
Pruritus, Grade 3 (human): 0 n (%)
Pruritus, Grade 4 (human): 0 n (%)
Pyrexia, Grade 1-2 (human): 31 (9) n (%)
Pyrexia, Grade 3 (human): 3 (<1) n (%)
Pyrexia, Grade 4 (human): 0 n (%)
Rash, Grade 1-2 (human): 52 (16) n (%)
Rash, Grade 3 (human): 2 (<1) n (%)
Rash, Grade 4 (human): 0 n (%)
Serious adverse events ≥grade 3 (human): 130 (40%) n (%)
Stomatitis, Grade 1-2 (human): 65 (20) n (%)
Stomatitis, Grade 3 (human): 8 (2) n (%)
Stomatitis, Grade 4 (human): 0 n (%)
Study treatment discontinuation due to diarrhea (human): 0.9%
Treatment discontinuation due to an adverse event not related to disease progression (human): 12%
Vomiting, Grade 1-2 (human): 106 (32) n (%)
Vomiting, Grade 3 (human): 7 (2) n (%)
Vomiting, Grade 4 (human): 0 n (%)
Weight decreased, Grade 1-2 (human): 105 (32) n (%)
Weight decreased, Grade 3 (human): 9 (3) n (%)
Weight decreased, Grade 4 (human): 0 n (%)
Grade 5 adverse events assessed as treatment-related: One
